PubChem BioAssay AID248 (DTP/NCI, 2004)
“And” between values parts separate entries of the source, which are not always exact repeats. Identical values can stand only once. Inconclusive results and toxic doses are left out. Cut-off read from the data, not from the text of the source: active = T/C of 150% or more; inactive = T/C below 125%.

Test system: L1210 leukemia ip in BDF1 mice, survival T/C
Test: NCI In Vivo Anticancer Drug Screen. Data for tumor model L1210 Leukemia (intraperitoneal) in B6D2F1 (BDF1) mice
Details: endpoint: mean survival time, higher = longer survival
Procedure, shortened: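 Read-out is survival time, reported as the treated-group measurement over the vehicle-control measurement.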

[1] = dose: 100.0 mg/kg/injection, schedule: Q04DX003 (ip), vehicle: saline with Tween-80
[2] = dose: 200.0 mg/kg/injection, schedule: Q04DX003 (ip), vehicle: saline with Tween-80
[3] = dose: 25.0 mg/kg/injection, schedule: Q01DX009 (ip), vehicle: saline
[4] = dose: 50.0 mg/kg/injection, schedule: Q01DX009 (ip), vehicle: saline
[5] = dose: 25.0 mg/kg/injection, schedule: Q04DX002 (ip), vehicle: saline
[6] = dose: 50.0 mg/kg/injection, schedule: Q04DX002 (ip), vehicle: saline
[7] = dose: 100.0 mg/kg/injection, schedule: Q01DX001 (ip), vehicle: saline
[8] = dose: 100.0 mg/kg/injection, schedule: Q01DX009 (ip), vehicle: saline
[9] = dose: 100.0 mg/kg/injection, schedule: Q04DX002 (ip), vehicle: saline
[10] = dose: 200.0 mg/kg/injection, schedule: Q01DX001 (ip), vehicle: saline
[11] = dose: 200.0 mg/kg/injection, schedule: Q01DX009 (ip), vehicle: saline
[12] = dose: 200.0 mg/kg/injection, schedule: Q04DX002 (ip), vehicle: saline
[13] = dose: 400.0 mg/kg/injection, schedule: Q01DX001 (ip), vehicle: saline
[14] = dose: 400.0 mg/kg/injection, schedule: Q01DX009 (ip), vehicle: saline
[15] = dose: 400.0 mg/kg/injection, schedule: Q04DX002 (ip), vehicle: saline
[16] = dose: 25.0 mg/kg/injection, schedule: Q01DX009 (ip), vehicle: Klucel (hydroxypropylcellulose) (HPC)
[17] = dose: 50.0 mg/kg/injection, schedule: Q01DX009 (ip), vehicle: Klucel (hydroxypropylcellulose) (HPC)
[18] = dose: 100.0 mg/kg/injection, schedule: Q04DX003 (ip), vehicle: Klucel (hydroxypropylcellulose) (HPC)
[19] = dose: 100.0 mg/kg/injection, schedule: Q01DX001 (ip), vehicle: carboxymethylcellulose (CMC)
[20] = dose: 200.0 mg/kg/injection, schedule: Q01DX001 (ip), vehicle: carboxymethylcellulose (CMC)
[21] = dose: 400.0 mg/kg/injection, schedule: Q01DX001 (ip), vehicle: carboxymethylcellulose (CMC)

Measured: T/C

CCCCOCN1COCC1(C)C
inactive: [1] 108 % of control | [2] 106 % of control

N#Cc1cc([N+](=O)[O-])c(Cl)c([N+](=O)[O-])c1Cl
inactive: dose: 3.13 mg/kg/injection, schedule: Q01DX009 (ip), vehicle: saline with Tween-80 95 % of control | dose: 6.25 mg/kg/injection, schedule: Q01DX009 (ip), vehicle: saline with Tween-80 108 % of control | dose: 6.25 mg/kg/injection, schedule: Q04DX003 (ip), vehicle: saline with Tween-80 98 % of control | dose: 12.5 mg/kg/injection, schedule: Q01DX009 (ip), vehicle: saline with Tween-80 101 % of control | dose: 12.5 mg/kg/injection, schedule: Q04DX003 (ip), vehicle: saline with Tween-80 95 % of control

CC(CN1c2ccccc2Sc2cccnc21)N(C)C (centres undefined)
inactive: dose: 3.12 mg/kg/injection, schedule: Q01DX009 (ip), vehicle: saline 97 % of control | dose: 6.25 mg/kg/injection, schedule: Q01DX009 (ip), vehicle: saline 97 % of control | dose: 12.5 mg/kg/injection, schedule: Q01DX009 (ip), vehicle: saline 101 % of control | [3] 103 % of control | dose: 25.0 mg/kg/injection, schedule: Q04DX003 (ip), vehicle: saline 108 % of control | [4] 111 % of control | dose: 50.0 mg/kg/injection, schedule: Q04DX003 (ip), vehicle: saline 102 % of control

NC(N)=NCCCC(N)C(=O)O (centres undefined)
inactive: [5] 97 % of control | [6] 113 % of control | [7] 97 % of control | [8] 119 % of control | [9] 103 % of control and 97 % of control | dose: 100.0 mg/kg/injection, schedule: Q04DX003 (ip), vehicle: saline 102 % of control and 94 % of control | [10] 100 % of control | [11] 95 % of control | [12] 94 % of control | dose: 200.0 mg/kg/injection, schedule: Q04DX003 (ip), vehicle: saline 105 % of control and 90 % of control | [13] 103 % of control | [14] 97 % of control | [15] 94 % of control | dose: 400.0 mg/kg/injection, schedule: Q04DX003 (ip), vehicle: saline 109 % of control and 97 % of control

N#Cc1c(F)c(F)c(C#N)c(F)c1F
inactive: dose: 1.25 mg/kg/injection, schedule: Q01DX009 (ip), vehicle: Klucel (hydroxypropylcellulose) (HPC) 97 % of control | dose: 2.5 mg/kg/injection, schedule: Q01DX009 (ip), vehicle: Klucel (hydroxypropylcellulose) (HPC) 95 % of control | dose: 5.0 mg/kg/injection, schedule: Q01DX001 (ip), vehicle: saline 98 % of control | dose: 5.0 mg/kg/injection, schedule: Q01DX009 (ip), vehicle: Klucel (hydroxypropylcellulose) (HPC) 103 % of control | dose: 10.0 mg/kg/injection, schedule: Q01DX001 (ip), vehicle: saline 102 % of control | dose: 10.0 mg/kg/injection, schedule: Q01DX009 (ip), vehicle: Klucel (hydroxypropylcellulose) (HPC) 104 % of control

CC(=O)NC(CCC(N)=O)C(=O)O (centres undefined)
inactive: [9] 99 % of control | [12] 89 % of control | [15] 96 % of control

O=C(O)C1C(C(=O)Nc2cc(C(F)(F)F)ccc2Cl)C2(Cl)C(Cl)=C(Cl)C1(Cl)C2(Cl)Cl (centres undefined)
inactive: [16] 97 % of control | [17] 95 % of control | dose: 50.0 mg/kg/injection, schedule: Q04DX003 (ip), vehicle: Klucel (hydroxypropylcellulose) (HPC) 95 % of control | [18] 93 % of control and 91 % of control

O=C1C2C3CCC(O3)C2C(=O)N1CC#CCCl (centres undefined)
inactive: dose: 6.25 mg/kg/injection, schedule: Q04DX002 (ip), vehicle: saline with Tween-80 100 % of control | dose: 12.5 mg/kg/injection, schedule: Q04DX002 (ip), vehicle: saline with Tween-80 106 % of control

NC(=O)NC(=O)Nc1ccccc1
inactive: [9] 96 % of control | [12] 96 % of control | [15] 111 % of control

CCCCCCCCOC(=O)Nc1ccc(S(=O)(=O)N(C)C)cc1
inactive: [19] 98 % of control | [20] 97 % of control | [21] 89 % of control

CNC(c1ccccc1)C(O)c1ccccc1 (centres undefined)
inactive: [16] 106 % of control | [17] 95 % of control | dose: 100.0 mg/kg/injection, schedule: Q01DX009 (ip), vehicle: Klucel (hydroxypropylcellulose) (HPC) 106 % of control | [18] 97 % of control

CC12CCC3C4CCC(=O)C(O)=C4CCC3C1CCC2OC(=O)CCC1CCCC1 (centres undefined)
inactive: dose: 100.0 mg/kg/injection, schedule: Q01DX009 (sc), vehicle: steriod suspending solution 96 % of control | dose: 200.0 mg/kg/injection, schedule: Q01DX009 (sc), vehicle: steriod suspending solution 107 % of control | dose: 400.0 mg/kg/injection, schedule: Q01DX009 (sc), vehicle: steriod suspending solution 100 % of control

O=C(CCCCl)N1CCCC1
inactive: [9] 98 % of control | [12] 91 % of control | [15] 94 % of control

CC(C)CC(C)OC(C[N+](=O)[O-])C(Cl)(Cl)Cl (centres undefined)
inactive: dose: 100.0 mg/kg/injection, schedule: Q01DX009 (ip), vehicle: saline with Tween-80 93 % of control | [1] 106 % of control | [2] 104 % of control | dose: 400.0 mg/kg/injection, schedule: Q01DX009 (ip), vehicle: saline with Tween-80 93 % of control | dose: 400.0 mg/kg/injection, schedule: Q04DX003 (ip), vehicle: saline with Tween-80 98 % of control

COc1ccc(Nc2cc(C)nc(N)n2)cc1
inactive: dose: 25.0 mg/kg/injection, schedule: Q01DX Z (ip), vehicle: methylcellulose (MC) 97 % of control | dose: 50.0 mg/kg/injection, schedule: Q01DX Z (ip), vehicle: methylcellulose (MC) 105 % of control

Cc1cc(O)ccc1C1=[N+](C)CC(C)S1 (centres undefined)
inactive: dose: 12.5 mg/kg/injection, schedule: Q04DX002 (ip), vehicle: saline 103 % of control | [5] 100 % of control | [6] 103 % of control

Cc1c2ccc3ccccc3c2cc2cccc(C#N)c12
inactive: dose: 100.0 mg/kg/injection, schedule: Q01DX001 (ip), vehicle: Klucel (hydroxypropylcellulose) (HPC) 106 % of control | dose: 200.0 mg/kg/injection, schedule: Q01DX001 (ip), vehicle: Klucel (hydroxypropylcellulose) (HPC) 98 % of control | dose: 400.0 mg/kg/injection, schedule: Q01DX001 (ip), vehicle: Klucel (hydroxypropylcellulose) (HPC) 98 % of control

C1=COC(C2NCCCN2)CC1 (centres undefined)
inactive: [7] 102 % of control | [10] 111 % of control | [13] 106 % of control

CC(=O)Nc1c(Br)cc2c(c1Br)Cc1cc(Br)ccc1-2
inactive: [19] 111 % of control | [20] 97 % of control | [21] 108 % of control

CCOC(=O)/C=C(\C)OCC
inactive: [3] 106 % of control | [4] 109 % of control | [8] 109 % of control | [11] 111 % of control | [14] 104 % of control

O=C(O)C(O)C(O)C(O)C(O)C(O)CO.[Fe] (centres undefined)
inactive: dose: 75.0 mg/kg/injection, schedule: Q01DX001 (ip), vehicle: saline 95 % of control
